In ChEMBL document CHEMBL1201862, “PubChem BioAssay data set” (2004):
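1) Cells in 96-well plates. 2) Compound, 48 h, 5 concentrations. 3) Linear interpolation between surrounding doses. 4) Unreached endpoint = highest concentration. GI50 marks 50% less growth.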 Activity calls are given as the source filed them. Cut-off read from the data, not from the text of the source: active = GI50 up to about 1.1 µM and inactive = higher.

Experiments:
Experiment in all cases: inhibition of tumour cell growth, NCI panel, 48 h
[1] = tested on: DLD-1
[2] = tested on: SNB-78
[3] = tested on: HOP-18
[4] = tested on: DMS-114
[5] = tested on: XF498
[6] = tested on: M19-MEL
[7] = tested on: DMS-273
[8] = tested on: LXFL 529
[9] = tested on: RXF 631

SMILES | GI50 [1] | GI50 [2] | GI50 [3] | GI50 [4] | GI50 [5] | GI50 [6] | GI50 [7] | GI50 [8] | GI50 [9]
C[C@H]1COC2(c3ccccc3)CCC(=O)N12 (stereo partly drawn) | > 100 µM (inactive) | > 100 µM (inactive) | > 100 µM (inactive) | > 100 µM (inactive) | > 100 µM (inactive) | > 100 µM (inactive) | > 100 µM (inactive) |  | 
Cc1c(/C=N/NC(=O)c2ccccc2O)c(=O)n(-c2ccccc2)n1C | > 100 µM (inactive) | > 100 µM (inactive) | > 100 µM (inactive) | > 100 µM (inactive) | > 100 µM (inactive) | > 100 µM (inactive) | 58.5 µM (inactive) | > 100 µM (inactive) | 
O=c1cc(O)ccn1C1C=C(CO)C(O)C1O (stereo not drawn) | > 625 µM (inactive) | > 625 µM (inactive) | > 625 µM (inactive) | > 625 µM (inactive) | < 0.0625 µM (active) |  | > 625 µM (inactive) |  | 
CCCCCNC(=O)c1c(O)[nH]c(=S)[nH]c1=O |  | > 100 µM (inactive) |  | 60.7 µM (inactive) |  | > 100 µM (inactive) |  | > 100 µM (inactive) | > 100 µM (inactive)
CC(=O)C(/N=N\C1CCC(S(=O)(=O)NB2N=CS2)CC1)C(=O)Nc1ccccc1C (stereo not drawn) | 16.9 µM (inactive) | 23.6 µM (inactive) | 29.3 µM (inactive) | 11.9 µM (inactive) | 16.9 µM (inactive) | 17.6 µM (inactive) | 20.6 µM (inactive) | 14.2 µM (inactive) | 
N#C/C(=C\c1ccc(C(O)P(=O)(O)O)cc1)C(N)=O (stereo not drawn) | > 100 µM (inactive) | > 100 µM (inactive) | > 100 µM (inactive) | 17.2 µM (inactive) | > 100 µM (inactive) | > 100 µM (inactive) | > 100 µM (inactive) | > 100 µM (inactive) | > 100 µM (inactive)
